Data published in patent US20050272824A1, “Methods for monitoring combretastatin resistance” (priority 2004, published 2005).
“Also recorded” adds a separate entry of the source. Like-named read-outs stand apart in the source and are kept apart here.

What was measured:
DU145 = test: In vitro cytotoxicity (modified MTT) assay, DU145; format: cell-based; settings: DU145, Prostate Carcinoma; MTT after 48 h; average of three independent experiments in triplicate
Experimental: (§1) A panel of cells lines obtained from American Type Culture Collection (Rockville, Md., USA) was initially assayed against CA-4 to screen for drug sensitivity. The human non-small cell lung carcinoma (NSCLC), NCI-H460, was selected for resistance based on significant cytotoxicity. H460 cells were grown and maintained in RPMI-1640 supplemented with penicillin-streptomycin, Fungizone® and 10% heat inactivated fetal bovine serum (Invitrogen, Carlsbad, Calif., USA) and maintained at 37° C. humidified 5% CO2 atmosphere. H460 parental cell line was selected for resistance to CA-4, paclitaxel or vinblastine by incubation with stepwise increments of each drug, beginning at 2 nM. Cells were treated with the drugs for 24 h, once a week, and every 2-3 weeks, drug dose was increased by 2 nM increments until 30 nM drug resistance was reached. To select non-MDR resistant cell lines, cells were evolved in the presence of verapamil, an inhibitor of P-glycoprotein (P-gp) drug efflux pump that produces a MDR phenotype. Resistance was maintained by acute 24 h exposure to the corresponding drug and verapamil once a month. […]
(§2) Cytoxicity assays was assessed using a modified MTT assay (Mosmann, 1983). […] Percentage survival was calculated as the OD560 of the treated sample divided by the OD560 of the untreated control cell line. […]

[1] = test system: V30 (H460 cells selected at 30 nM vinblastine); test: In vitro cytotoxicity assay of resistant cell line V30; format: cell-based, human; settings: for IC50: V30 cells (H460 selected at 30 nM vinblastine), MTT after 48 h; for V30 Resistance Factor: V30 cells relative to parental H460
Experimental: (§3) A panel of cells lines obtained from American Type Culture Collection (Rockville, Md., USA) was initially assayed against CA-4 to screen for drug sensitivity. […] H460 cells were grown and maintained in RPMI-1640 supplemented with penicillin-streptomycin, Fungizone® and 10% heat inactivated fetal bovine serum (Invitrogen, Carlsbad, Calif., USA) and maintained at 37° C. humidified 5% CO2 atmosphere. H460 parental cell line was selected for resistance to CA-4, paclitaxel or vinblastine by incubation with stepwise increments of each drug, beginning at 2 nM. Cells were treated with the drugs for 24 h, once a week, and every 2-3 weeks, drug dose was increased by 2 nM increments until 30 nM drug resistance was reached. To select non-MDR resistant cell lines, cells were evolved in the presence of verapamil, an inhibitor of P-glycoprotein (P-gp) drug efflux pump that produces a MDR phenotype. Resistance was maintained by acute 24 h exposure to the corresponding drug and verapamil once a month. All cells used for the experiments were grown logarithmically in drug-free medium at least a week before experiments.
(§4) Cytoxicity assays was assessed using a modified MTT assay (Mosmann, 1983). MTT (3-(4,5-dimethylthiazol-2-yl)-2,5-diphenyl tetrazolium bromide, MTT) was purchased from Sigma (St. Louis, Mo., USA). For each drug treatment, triplicate wells were seeded (5.0×10^3/well) and conditioned overnight. Drugs were prepared by serial dilution with RPMI media and added to the corresponding wells. After 48 h, the MTT assay was performed. Percentage survival was calculated as the OD560 of the treated sample divided by the OD560 of the untreated control cell line. Cell lines were tested with cisplatin to test for non-MDR phenotype.
(§5) C30, P30, and V30 cell lines represent H460 parental cells selected at 30 nM CA-4, paclitaxel, and vinblastine, respectively. […] Cisplatin, an anti-cancer agent with a non-tubulin-binding mode of action was assayed against the cell lines to test for […].

HT29 = test: In vitro cytotoxicity (modified MTT) assay, HT29; format: cell-based; settings: HT29, Colorectal Adenocarcinoma; MTT after 48 h; average of three independent experiments in triplicate
Experimental: as §1, §2

MOLT4 = test: In vitro cytotoxicity (modified MTT) assay, MOLT4; format: cell-based; settings: MOLT4, Acute Lymphoblastic Leukemia; MTT after 48 h; average of three independent experiments in triplicate
Experimental: as §1, §2

NCI-H460 = test: In vitro cytotoxicity (modified MTT) assay, H460 parental; format: cell-based, human; settings: MTT after 48 h
Experimental: A panel of cells lines obtained from American Type Culture Collection (Rockville, Md., USA) was initially assayed against CA-4 to screen for drug sensitivity. The human non-small cell lung carcinoma (NSCLC), NCI-H460, was selected for resistance based on significant cytotoxicity. H460 cells were grown and maintained in RPMI-1640 supplemented with penicillin-streptomycin, Fungizone® and 10% heat inactivated fetal bovine serum (Invitrogen, Carlsbad, Calif., USA) and maintained at 37° C. humidified 5% CO2 atmosphere. H460 parental cell line was selected for resistance to CA-4, paclitaxel or vinblastine by incubation with stepwise increments of each drug, beginning at 2 nM. Cells were treated with the drugs for 24 h, once a week, and every 2-3 weeks, drug dose was increased by 2 nM increments until 30 nM drug resistance was reached. To select non-MDR resistant cell lines, cells were evolved in the presence of verapamil, an inhibitor of P-glycoprotein (P-gp) drug efflux pump that produces a MDR phenotype. Resistance was maintained by acute 24 h exposure to the corresponding drug and verapamil once a month. All cells used for the experiments were grown logarithmically in drug-free medium at least a week before experiments.
as §4
To select a moderately sensitive cell line for drug-resistance, a panel of susceptible tumor cell lines was screened for CA-4 cytotoxicity. Table 1 depicts the average in vitro cytotoxicity (IC50) values for three independent experiments with each experiment run in triplicate.

BXPC3 = test: In vitro cytotoxicity (modified MTT) assay, BXPC3; format: cell-based; settings: BXPC3, Pancreatic Adenocarcinoma; MTT after 48 h; average of three independent experiments in triplicate
Experimental: as §1, §2

CEM = test: In vitro cytotoxicity (modified MTT) assay, CEM; format: cell-based; settings: Acute Lymphoblastic Leukemia, MTT after 48 h, average of three independent experiments in triplicate
Experimental: as §1, §2

[2] = test system: P30 (H460 cells selected at 30 nM paclitaxel); test: In vitro cytotoxicity assay of resistant cell line P30; format: cell-based, human; settings: for IC50: P30 cells (H460 selected at 30 nM paclitaxel), MTT after 48 h; for P30 Resistance Factor: P30 cells relative to parental H460
Experimental: as §3, §4, §5

[3] = test system: C30 (H460 cells selected at 30 nM CA-4); test: In vitro cytotoxicity assay of resistant cell line C30; format: cell-based, human; settings: for IC50: C30 cells (H460 selected at 30 nM CA-4), MTT after 48 h; for C30 Resistance Factor: C30 cells relative to parental H460
Experimental: as §3, §4, §5

MCF7 = test: In vitro cytotoxicity (modified MTT) assay, MCF7; format: cell-based; settings: MCF7, Mammary Gland Adenocarcinoma; MTT after 48 h; average of three independent experiments in triplicate
Experimental: as §1, §2

[4] = H460 parental cells, Table 2, read-out: H460 wild-type IC50
[5] = Homo sapiens, NCI-H460, H460 parental cells, Table 2, read-out: H460 wild-type IC50

Structure (SMILES)	IC50 [1] [nM]	IC50 (NCI-H460; [4]) [nM]	IC50 [2] [nM]	IC50 [3] [nM]	IC50 ([1]; Homo sapiens, NCI-H460) [nM]	V30 Resistance Factor [1]	IC50 (NCI-H460; [5]) [nM]	IC50 ([2]; Homo sapiens, NCI-H460) [nM]	P30 Resistance Factor [2]	C30 Resistance Factor [3]	IC50 ([3]; Homo sapiens, NCI-H460) [nM]	also measured
COc1ccc(/C=C\c2cc(OC)c(OC)c(OC)c2)cc1O [CA-4, Combretastatin A-4]	9.2 ± 0.6	7 ± 0.6	8.5 ± 0.2	19	–	–	–	–	–	–	–	IC50 (DU145): 7.7 nM; IC50 (HT29): 55100 nM; IC50 (MOLT4): 4.1 nM; IC50 (NCI-H460; H460, Non-Small Cell Lung Carcinoma, Table 1 screen, average of three independent experiments in triplicate, read-out: IC50): 7.3 nM; IC50 (BXPC3): 57000 nM; IC50 (CEM): 0.25 nM; IC50 (MCF7): 165000 nM
CC(=O)O[C@H]1C(=O)[C@@]2(C)[C@H]([C@H](OC(=O)c3ccccc3)[C@]3(O)C[C@H](OC(=O)[C@H](O)[C@@H](NC(=O)c4ccccc4)c4ccccc4)C(C)=C1C3(C)C)[C@]1(OC(C)=O)CO[C@@H]1C[C@@H]2O [Paclitaxel]	–	–	–	–	87 ± 3.6	10.8 ± 1.0	8.1 ± 0.4	77 ± 4.9	9.6 ± 1.0	9.9 ± 0.6	80 ± 2	V30 Resistance Factor ([1]; listed as paclitaxel): eleven fold; also recorded: tenfold; P30 Resistance Factor ([2]; listed as paclitaxel): tenfold; C30 Resistance Factor ([3]; listed as paclitaxel): tenfold
CC[C@]1(O)C[C@@H]2CN(CCc3c([nH]c4ccccc34)[C@@](C(=O)OC)(c3cc4c(cc3OC)N(C)[C@H]3[C@@](O)(C(=O)OC)[C@H](OC(C)=O)[C@]5(CC)C=CCN6CC[C@]43[C@@H]65)C2)C1 [Vinblastine]	–	–	–	–	26.3 ± 2.1	4.5 ± 0.4	5.9 ± 0.1	15.7 ± 4.2	2.7 ± 0.7	1.0 ± 0.0	6 ± 0.3	V30 Resistance Factor ([1]; listed as vinblastine): fivefold; P30 Resistance Factor ([2]; listed as vinblastine): threefold; C30 Resistance Factor ([3]; listed as vinblastine): negligibly resistant
N.N.[Cl][Pt][Cl] [Cisplatin]	21.7 ± 0.6	20 ± 2.6	25.3 ± 3.1	16.7 ± 3.2	–	–	–	–	–	–	–	–
